Measured values taken from PMC9006293 (Blood Advances, 2022).

Assays:
[1] = system: DNIMV-specific T-cell hybridoma clones; assay: Antigen-presentation assay, DNIMV-specific clones with fresh or fixed MGAR APCs; assay type: cell-based, mouse; conditions: fresh and paraformaldehyde-fixed MGAR APCs, 48 hours, ELISA
[2] = system: PRCLT-specific T-cell hybridoma clones; assay: Antigen-presentation assay, PRCLT-specific clones with fresh or fixed MGAR APCs; assay type: cell-based, mouse; conditions: fresh and paraformaldehyde-fixed MGAR APCs, 48 hours, ELISA
HLA-DR molecules = conditions: FVIII-pulsed donor-derived human dendritic cells with diverse HLA-DRB1* molecules; cited from earlier work

DNIMVTFRNQASRPY
IL-2 response of DNIMV-specific clones [1]: activated

PRCLTRYYSSFVNME
IL-2 response of PRCLT-specific clones [2]: produced IL-2

FRNQASRPY
HLA-DR binding (HLA-DR molecules): promiscuous pan-DR HLA-DR binding peptide
